Laboratory results from patent US5340806A, “Composition containing organogermanium compound and immunity adjusting agent comprising the composition” (Sanwa Kagaku Kenkyusho Co., Ltd., priority 1984, dated 1994).
Read-outs that look alike come from different tables or passages of the source.

Legend:
[1] = tested on: BALB/C mouse lymphocytes; test: Antibody production in culture system of BALB/C mouse lymphocytes; type: cell-based, BALB/C male mice
[2] = tested on: spleen cells (PFC), SRBC sensitized mice; test: Antibody production ability in normal mouse (spleen cell PFC); type: in vivo, ICR mice; details: 0.1, 1.0 and 10 mg/kg oral
Experimental: To each group of ICR mice (age, 5 weeks), 2×10^8 and 2 ×10^7 of sheep red blood corpuscles (SRBC), as an […], were venously injected for sensitization in a tail vein of the mice. Then, immediately, the organogermanium compound dissolved in 4% cattle serum albumin solution was orally dosed to the sensitized mice in an amount of 0.1, 1.0 and 10 mg/kg, respectively. After 4 days from the sensitization, spleen cells were extracted to measure the number of PFC therein, which was used as an index of the antibody productivity.

[3] = tested on: chronic B hepatitis; type: in vivo, human patients; details: 30 mg/day
Text: Utility or effectiveness of the organogermanium compound is checked in comparison with that of a placebo as a control. Interferons have widely been accepted as drugs for curing chronic hepatitis, but those are injectionally dosed. On the contrary, the organogermanium compound is orally dosed. In recent years, some oral medicines for curing liver diseases have been developed and the effectiveness thereof has been evaluated by using a placebo as its control. Therefore, the "placebo" is selected as the control for the evaluation of the organogermanium compound in question. (a) To patients with chronic B hepatitis: 30 mg/day/body. Experiment period of time was set for 16 weeks for the patients with chronic B hepatitis and for 12 weeks for the patients with non A and non B hepatitis.

[4] = tested on: chronic non A non B hepatitis; test: Long term dosing in chronic non A non B hepatitis (In Vivo Utilization Example 6); design: species or system human patients; details: for Liver tissue improvement: Ballooning of cell: 4 patients; for Liver tissue improvement: Moderation of lobule: 8 patients; for Liver tissue improvement: Fatty degeneration: 9 patients; for Glisson's capsule improvement: Piecemeal necrosis: 13 patients; for Liver tissue improvement: Mobilization image of Kupfer cell: 16 patients; for Glisson's capsule improvement: Fibrosis / Glisson's capsule improvement: Round cell infiltration / Liver tissue improvement: Cobwebby necrosis / Liver tissue improvement: Degenerative necrosis in cell: 17 patients
Experimental: A capsule containing the organogermanium compound was dosed to patients infected with chronic non A non B hepatitis over a long period of time to check safety and effectiveness of the organogermanium compound.
(a) Number of patients for analyzation: 68 persons.
Group A: 39 persons (dose; 30 mg/day/body), and
Group B: 29 persons (dose; 60 mg/day/body).
(b) Mean dosing period of time
(c) Number of patients who continuously dose over 48 weeks

[5] = tested on: chronic B hepatitis; type: in vivo, human patients
Experimental: Search on effectiveness of the organogermanium compound to chronic B and non A non B hepatitises and preferable amount of dose thereof.
Therefore, 30 mg, 60 mg and 90 mg/day/body were set. Experimental period of time was set for 12 weeks.
(a) Examination of liver functions (GOT, GPT, A 1-P, and γ-GTP), and
(b) Examination with use of HBV markers (HBe-Ag, HBe-Ab and DNA-P).

[6] = design: species or system human; details: in vivo
Experimental: A capsule containing various amount of effective organogermanium compound were dosed to each of healthy adult persons to check kinetics of the drug. […] The excretion ratio of the drug in urine was 30-50% in cases of any dose.
Therefore, it has been judged that the influence of the hepatitis on pharmakinetics of the drug is small.

[7] = tested on: NZB/W F1 mouse lymphocytes; test: Antibody production in culture system of NZB/W F1 mouse lymphocytes; type: cell-based, NZB/W F1 male mice; details: 1 to 2 μg/ml; FIG. 10a
[8] = 30 mg/day, patients of total 35
[9] = 60 mg/day, patients of total 26

Substance: 3-oxygermylpropionic acid [Compound No. 1]
- antibody producing function ([1]; 10 μg/ml, FIG. 10b): an acceleration of the function
- antibody producing function ([1]; 1 to 2 μg/ml): no change
- spleen cell PFC ([2]; SRBC 2×10^7, FIG. 8b): increase it
- spleen cell PFC ([2]; SRBC 2×10^8, FIG. 8a): tendancy to decrease spleen cell PFC
- A/G change [3]: .uparw. **
- GOT change [3]: .dwnarw. ***
- GOT, test versus placebo [3]: + (S>P)
- GPT change [3]: .dwnarw. ***
- GPT, test versus placebo [3]: * (S>P)
- Globulin change [3]: .dwnarw. ***
- Globulin, test versus placebo [3]: + (S>P)
- HBe-AG (log conversion) change [3]: .uparw. ***
- HBe-AG (log conversion), test versus placebo [3]: * (S>P)
- HBe-Ab change [3]: .uparw. *
- HBe-Ab, test versus placebo [3]: * (S>P)
- Serum albumin change [3]: .uparw. +
- TTT change [3]: .dwnarw. ***
- Total cholesterol change [3]: .uparw. *
- Total cholesterol, test versus placebo [3]: * (S>P)
- ZTT change [3]: .dwnarw. **
- γ-GPT change [3]: .dwnarw. **
- Improvement (objective) ([3]; 16 weeks, placebo 13%): 10%
- Improvement (HBe Ag-Ab) ([3]; 16 weeks, placebo 25%): 51%
- Improvement (sec. judgement) ([3]; 16 weeks, placebo 29%): 54%
- Improvement (Doc. on duty) ([3]; 16 weeks, placebo 31%): 58%
- Effectiveness (slight or more) ([3]; 16 weeks, placebo 34%): 63%
- Improvement (general) ([3]; 16 weeks, placebo 39%): 66%
- Improvement (self) ([3]; 16 weeks, placebo 40%): 53%
- Ratio of improvement: Middle or more ([4]; 30 mg/day): 11.4%
- Ratio of improvement: Slight or more ([4]; 30 mg/day): 26.9%
- Getting worse (functions of liver) [4, 8]: 3
- Middle improved (functions of liver) [4, 8]: 2
- No change (functions of liver) [4, 8]: 20
- Remarkably improved (functions of liver) [4, 8]: 2
- Ratio of improvement: Middle or more ([4]; 60 mg/day): 34.3%
- Ratio of improvement: Slight or more ([4]; 60 mg/day): 57.7%
- Getting worse (functions of liver) [4, 9]: 0
- Middle improved (functions of liver) [4, 9]: 4
- No change (functions of liver) [4, 9]: 11
- Remarkably improved (functions of liver) [4, 9]: 3
- Liver tissue improvement: Evaluation ([4]; ≥middle, 1/17): 5.9%
- Liver tissue improvement: Bridging necrosis ([4]; ≥middle, 3 patients): 0%
- Liver tissue improvement: Ballooning of cell ([4]; ≥middle): 0%
- Liver tissue improvement: Moderation of lobule ([4]; ≥middle): 0%
- Liver tissue improvement: Fatty degeneration ([4]; ≥middle): 0%
- Glisson's capsule improvement: Piecemeal necrosis ([4]; ≥middle): 0%
- Liver tissue improvement: Mobilization image of Kupfer cell ([4]; ≥middle): 6.3%
- Glisson's capsule improvement: Fibrosis ([4]; ≥middle): 0%
- Glisson's capsule improvement: Round cell infiltration ([4]; ≥middle): 0%
- Liver tissue improvement: Cobwebby necrosis ([4]; ≥middle): 5.9%
- Liver tissue improvement: Degenerative necrosis in cell ([4]; ≥middle): 5.9%
- Liver tissue improvement: Ballooning of cell ([4]; ≥slight): 0. %
- Liver tissue improvement: Moderation of lobule ([4]; ≥slight): 12.5%
- Liver tissue improvement: Fatty degeneration ([4]; ≥slight): 22.2%
- Liver tissue improvement: Evaluation ([4]; ≥slight, 10/17): 58.8%
- Glisson's capsule improvement: Piecemeal necrosis ([4]; ≥slight): 38.5%
- Liver tissue improvement: Mobilization image of Kupfer cell ([4]; ≥slight): 50.0%
- Glisson's capsule improvement: Fibrosis ([4]; ≥slight): 5.9%
- Glisson's capsule improvement: Round cell infiltration ([4]; ≥slight): 17.6%
- Liver tissue improvement: Cobwebby necrosis ([4]; ≥slight): 52.9%
- Liver tissue improvement: Degenerative necrosis in cell ([4]; ≥slight): 52.9%
- Effectiveness (slight or more) ([5]; 30 mg/day): 55%
- General judgement: Improvement (slight or more) ([5]; 30 mg/day): 52%
- HBV markers: Improvement (slight or more) ([5]; 30 mg/day): 36%
- A 1-P change ([5]; 30 mg/day, 12 weeks): .dwnarw. *
- DNA-P change ([5]; 30 mg/day, 12 weeks): .dwnarw. +
- GOT change ([5]; 30 mg/day, 12 weeks): .dwnarw. *
- GPT change ([5]; 30 mg/day, 12 weeks): .dwnarw. +
- HBe-Ab change ([5]; 30 mg/day, 12 weeks): .uparw. *
- HBe-Ag (log conversion) change ([5]; 30 mg/day, 12 weeks): .dwnarw. **
- γ-GTP change ([5]; 30 mg/day, 12 weeks): .dwnarw. *
- Effectiveness (slight or more) ([5]; 60 mg/day): 47%
- General judgement: Improvement (slight or more) ([5]; 60 mg/day): 37%
- HBV markers: Improvement (slight or more) ([5]; 60 mg/day): 27%
- HBe-Ab change ([5]; 60 mg/day, 12 weeks): .uparw. +
- Effectiveness (slight or more) ([5]; 90 mg/day): 47%
- General judgement: Improvement (slight or more) ([5]; 90 mg/day): 43%
- HBV markers: Improvement (slight or more) ([5]; 90 mg/day): 15%
- HBe-Ab change ([5]; 90 mg/day, 12 weeks): .uparw. **
- excretion ratio of the drug in urine ([6]; human, po): 30-50%
- time to maximum plasma concentration ([6]; human, po): 3 h
- AUC versus dose [6]: AUC increases as the amount of dose increases
- AUC, Cmax and excretion ratio in urine, hepatitis patients versus healthy persons [6]: tended to increase
- plasma concentration on first day versus 7th day [6]: same level
- tendency to accumulate [6]: does not show a tendency to accumulate
- antibody production ability [7]: an inhibition in antibody production ability
